Data as given in PubChem BioAssay AID520 (NMMLSC, 2006).
Calls of active or inactive are those of the source. The rule behind the calls is not given here.

Molecular target: N-formyl peptide receptor 2 (Homo sapiens) (UniProt P25090)
Test: FPRL1 binding inhibitor potency, dose response, cell-based, FPR counter-screen, fluorescent ligand (AID 520)
Details: FPRL1-expressing cells, fluorescent ligand binding inhibition; for Ki: measured here: FPRL1 binding Ki

Sequence of N-formyl peptide receptor 2 (Homo sapiens) (P25090 whole entry, looked up): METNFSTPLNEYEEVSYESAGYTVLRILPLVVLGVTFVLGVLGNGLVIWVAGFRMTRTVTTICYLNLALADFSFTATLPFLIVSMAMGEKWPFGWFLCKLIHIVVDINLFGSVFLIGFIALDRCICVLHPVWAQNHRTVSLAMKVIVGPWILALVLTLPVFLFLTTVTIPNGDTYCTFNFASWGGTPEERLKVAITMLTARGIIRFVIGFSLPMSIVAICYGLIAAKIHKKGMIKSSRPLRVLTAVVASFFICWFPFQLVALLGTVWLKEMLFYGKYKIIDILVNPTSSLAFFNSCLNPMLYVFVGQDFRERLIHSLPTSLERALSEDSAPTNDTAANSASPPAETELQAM

SMILES | IC50 | Ki [µM]
O=C(C1=C(O)C(=O)N(CCCN2CCOCC2)C1c1ccccn1)c1cc2ccccc2o1 (stereo not given) | > 66.7 µM (inactive) | > 40.3
CC1(C)S[C@@H]2[C@H](NC(=O)C(C(=O)O)c3ccccc3)C(=O)N2[C@H]1C(=O)O (stereo not given in full) | – | > 40.3
CCN(C(=O)Cc1c(C(=O)O)[nH]c2ccccc12)c1cc(OC)ccc1OC | – | > 40.3
COc1ccc(OC)c(C2/C(=C(/O)c3ccccc3)C(=O)C(=O)N2Cc2ccco2)c1 (stereo not given) | > 66.7 µM (inactive) | > 40.3
CCOC(=O)Nc1ccc(OC)cc1S(=O)(=O)N1CCCCC1 | – | > 40.3
CSc1ccccc1NS(=O)(=O)c1ccccc1 | – | > 40.3
COc1ccccc1NC(=O)CSc1nnc(Cn2nnc(-c3ccccc3)n2)n1-c1ccccc1 | – | > 40.3
Cc1ccc(F)c(NC(=O)C2CCCCC2C(=O)O)c1 (stereo not given) | – | > 40.3
Cc1cccc(Nc2ccccc2C(=O)NCc2ccco2)c1C | – | > 40.3
COc1ccc(/C(O)=C2/C(=O)C(=O)N(CCN3CCOCC3)C2c2ccc(C)cc2)cc1 (stereo not given) | > 66.7 µM (inactive) | > 40.3
CCOC(=O)c1c(NC(=O)C2C3CCC(O3)C2C(=O)O)sc(C)c1-c1ccc(C)cc1 (stereo not given) | – | > 40.3
Cc1csc(NC(=O)CCn2c(=O)oc3ccccc32)n1 | – | > 40.3
Clc1ccc(C2CC(c3cccs3)n3ncnc3N2)cc1Cl (stereo not given) | – | > 40.3
COc1ccc(-c2nc(-c3ccc(Br)o3)no2)cc1OC | – | > 40.3
CC1(C)S[C@@H]2[C@H](NC(=O)Cc3ccccc3)C(=O)N2[C@H]1C(=O)O | – | > 40.3
CC1=C(C(=O)OC(C)C)[C@]2(C(=O)N(CC(N)=O)c3ccccc32)C(C#N)=C(N)O1 | > 66.7 µM (inactive) | > 40.3
CCCCn1c(NC(C)=O)c(C#N)c2nc3ccccc3nc21 | – | > 40.3
COc1cc(-n2nc(C)c3c2OC(N)=C(C#N)C3c2ccccc2)c(Cl)c(Br)c1O (stereo not given) | > 66.7 µM (inactive) | > 40.3
COCCCN1C(=O)C(=O)/C(=C(/O)c2ccc(OC)cc2C)C1c1cccnc1 (stereo not given) | > 66.7 µM (inactive) | > 40.3
COc1cccc(OC)c1/C(O)=C(\C#N)c1nc2ccccc2[nH]1 | > 66.7 µM (inactive) | > 40.3
COc1ccc(C)cc1NC(=O)C1CCCCC1C(=O)O (stereo not given) | – | > 40.3
O=c1c2c(nc3c(-c4ccc(Cl)cc4)c[nH]n13)CCCC2 | – | > 40.3
Cc1ccc(C)c(/C(O)=C2\C(=O)C(=O)N(CCCn3ccnc3)C2c2ccncc2)c1 (stereo not given) | > 66.7 µM (inactive) | > 40.3

SMILES | IC50 | Ki [µM]
COCCN1C(=O)C(O)=C(C(=O)c2ccco2)C1c1cccc(Oc2ccccc2)c1 (stereo not given) | > 66.7 µM (inactive) | > 40.3
Cc1cc2oc(C(=O)NC3CCS(=O)(=O)C3)c(C)c2cc1C (stereo not given) | – | > 40.3
COC(=O)c1[nH]c(C)c(/C(O)=C2\C(=O)C(=O)N(CCN3CCOCC3)C2c2cccs2)c1C (stereo not given) | > 66.7 µM (inactive) | > 40.3
COc1ccccc1C1/C(=C(/O)c2ccccc2)C(=O)C(=O)N1CC(C)C (stereo not given) | > 66.7 µM (inactive) | > 40.3
CCOc1cc(C2C(C(=O)c3ccc(C)o3)=C(O)C(=O)N2CCc2ccccc2)ccc1O (stereo not given) | > 66.7 µM (inactive) | > 40.3
Cc1cccc(OCC(=O)Nc2cc(C)ccc2O)c1 | – | > 40.3
CCOC(=O)Cc1cc(=O)n2[nH]c(C)c(-c3ccc(OC)cc3)c2n1 | – | > 40.3
COC(=O)c1[nH]c(C)c(/C(O)=C2\C(=O)C(=O)N(CCCN3CCOCC3)C2c2ccccn2)c1C (stereo not given) | > 66.7 µM (inactive) | > 40.3
COc1cc2c3c(c1)/C(=C1/SC(NC(C)=O)=NC1=O)C(=O)N3C(C)(C)C=C2C | – | > 40.3
COc1ccc(-c2c(C)oc3c(CN4CCN(CCO)CC4)c(O)ccc3c2=O)cc1OC | – | > 40.3
C=CCn1c(NC(=O)c2ccccc2)c(C#N)c2nc3ccccc3nc21 | – | > 40.3
Cc1nnc(SCc2cnc(-c3ccccc3)o2)[nH]c1=O | – | > 40.3
COc1cccc2c1C(=O)c1c(O)c3c(c(O)c1C2=O)C[C@@](O)(C(C)=O)C[C@@H]3O[C@H]1C[C@H](N)[C@H](O)[C@H](C)O1 | – | 15.2
Cc1nc2c(C#N)c[nH]n2c(=O)c1Cc1ccccc1 | – | > 40.3
CC(C)OC(=O)c1nnn(-c2nonc2N)c1CN1CCc2ccccc2C1 | – | > 40.3
C=CCn1c(SCCCC)nc(O)cc1=O | – | > 40.3
Cc1ccc(/C(O)=C2\C(=O)C(=O)N(CC(C)O)C2c2ccc(N(C)C)cc2)cc1 (stereo not given) | > 66.7 µM (inactive) | > 40.3
Cc1ccc(C2C(C(=O)c3sc(C)nc3C)=C(O)C(=O)N2CCN2CCOCC2)o1 (stereo not given) | > 66.7 µM (inactive) | > 40.3
Cc1cc(N2C(=O)C(O)=C(C(=O)c3ccco3)C2c2cccnc2)no1 (stereo not given) | > 66.7 µM (inactive) | > 40.3
COC(=O)c1[nH]c(C)c(/C(O)=C2\C(=O)C(=O)N(CCN3CCOCC3)C2c2cccnc2)c1C (stereo not given) | > 66.7 µM (inactive) | > 40.3
O=C(NC1CCCC1)C1CC1c1ccccc1 (stereo not given) | – | > 40.3
COc1ccc(C2/C(=C(/O)c3ccccc3)C(=O)C(=O)N2CC(C)O)c(OC)c1 (stereo not given) | > 66.7 µM (inactive) | > 40.3
CCn1cc(C(=O)NC2CCC(C)CC2)c(=O)c2cc(S(=O)(=O)N3CCCCC3)ccc21 (stereo not given) | – | > 40.3

SMILES | IC50 | Ki [µM]
COc1ccc(-c2cn3cccnc3n2)cc1NC(=O)CC(C)C | – | 27.2
CC(=O)SCC(=O)N=c1sc2cc(F)ccc2n1C | – | > 40.3
COC(=O)C1(S(=O)(=O)c2cccc3nsnc23)CC1 | – | > 40.3
COc1ccc2c(=O)c(N3C(=O)c4ccccc4C3=O)c(C)oc2c1 | – | > 40.3
Cc1ccccc1Nc1cc2ccccc2c(=O)[nH]1 | – | > 40.3
CCN(CCCc1ccccc1)CCCc1ccccc1 | – | > 40.3
CC1CCN(c2nc(-c3ccccc3)c(C#N)c(=O)[nH]2)CC1 | – | > 40.3
COCCCN1C(=O)C(=O)/C(=C(/O)c2ccc3c(c2)CC(C)O3)C1c1cccnc1 (stereo not given) | > 66.7 µM (inactive) | > 40.3
Cc1nc2c(-c3ccc(F)cc3)c(C)nn2c(C)c1CCC(=O)NC(C)CCc1ccco1 (stereo not given) | – | > 40.3
O=C(NCc1cccnc1)C1c2ccccc2C(=O)N1C1CCCCCC1 (stereo not given) | – | > 40.3
CC(C)(C)CC(=O)Nc1ccc(Nc2ccccc2)cc1 | – | > 40.3
COc1ccccc1Oc1c(C)oc2c(CN(C)C)c(O)ccc2c1=O | – | > 40.3
Cc1c(C)c2cc(Cl)c(O)c(CN3CCCCC3)c2oc1=O | – | > 40.3
CCC(NC(=O)Nc1cc(OC)c(OC)c(OC)c1)(C(F)(F)F)C(F)(F)F | – | > 40.3
CCCCn1c(NC(=O)CC)c(C#N)c2nc3ccccc3nc21 | – | > 40.3
COc1ccc(/C(O)=C2\C(=O)C(=O)N(Cc3ccco3)C2c2ccc(OC)cc2OC)cc1 (stereo not given) | > 66.7 µM (inactive) | > 40.3
COc1ccc(CCN2C(=O)C(O)=C(C(=O)c3ccco3)C2c2cccs2)cc1OC (stereo not given) | > 66.7 µM (inactive) | > 40.3
Cc1ccc(NC(=O)C2CCCN2S(=O)(=O)c2cccc3cccnc23)cc1F (stereo not given) | – | > 40.3
Clc1ccc(Cc2nn3c(-c4ccncc4)nnc3s2)cc1 | – | > 40.3
O=C(NCCCN1CCN(c2ccc(F)cc2)CC1)c1cccc(N2CCCC2=O)c1 | – | > 40.3
COc1ccc(CC(=O)Nc2ccc(-c3nnc(-c4ccc(C)cc4)o3)cc2)cc1 | – | > 40.3
COc1ccc2ccccc2c1C1CC(=O)N2CN(C3CCCCC3)CSC2=C1C#N (stereo not given) | – | > 40.3
COc1ccc(-n2c(Cc3cccn3C)nnc2SCC(=O)Nc2ccc(Cl)cc2)cc1 | – | > 40.3
